The source of these data is US12319703B2, “Macrocyclic fused pyrazoles as Mcl-1 inhibitors” (ASCENTAGE PHARMA (SUZHOU) CO., LTD., priority 2019, dated 2025).

Like-named read-outs stand apart in the source and are kept apart here.

Test [1] has as its target T1, Mcl-1 protein (residues 171-323) (Homo sapiens, UniProt Q07820).
T1 construct: Tag-free Mcl-1 protein (residues 171-323) was used in the FP assay
Kind of test: Inhibition of Mcl-1 by fluorescence polarization (FP) competitive binding assay. The following applies: FAM-Bid tracer 2 nM, Mcl-1 20 nM, 30 min. The protocol:
Inhibition of Mcl-1 by Fluorescence Polarization (FP) Assay.
The method used a fluorescein labelled peptide (FAM-Bid) which binds to the Mcl-1 protein leading to an increased anisotropy measured in milli-polarization (mP) values using a plate reader.
A 10-points serial dilution of each compound was prepared in DMSO and 5 μL solution was transferred into flat bottomed, 96-well back plate (final DMSO concentration 5%). 120 μL of Buffer (PBS, 0.01% BGG (Sigma Cat. #SRE0011), 0.01% Triton X-100), containing the Fluorescein labelled peptide (Final concentration 2 nM) and Mcl-1 protein (final concentration 20 nM) was then added. […] 10-points dose response curves were plotted with GraphPad software using Sigmoidal Dose-Response Model and the IC50 values were determined by nonlinear regression fitting of the competition curves.

The test system of the next test is OPM-2 cells. Kind of test: Cell viability assay (OPM-2 cells), CCK-8. Format: cell-based. The following applies: WST, 5% FBS, read-out: OPM2 (WST, 5% FBS). The protocol:
Cell Viability Assay (OPM-2 Cells)
OPM-2 cells were obtained from Deutsche Sammlung von Mikroorganismen und Zellkulturen GmbH (DSMZ). […]
The effect of representative Compounds of the Disclosure on cell viability was determined using Cell Counting Kit-8 (CCK-8) assay (Shanghai Life iLab Bio Technology) according to the manufacturer's instructions. Each tested compound was serially diluted in culture medium, 100 μL of the compound dilution was added into 96-well plates. 100 μL of an OPM-2 cell suspension (20000 cells/well) in culture medium were seeded into the corresponding well of the plate and the cells were incubated at 37° C. in an atmosphere of 5% CO2 for 24 hours. In the next day, 20 μL of CCK-8 solution was added to each well of the plate and incubated for 4 hours.
The plates were read at 450 nm on the microplate spectrophotometer (SpectraMax plus 384, Molecular devices). The readings were normalized to the vehicle cells, and the IC50 was calculated by nonlinear regression analysis using GraphPad Prism 6 software.

The test system of the next test is NCI-H929 cells. Put plainly: Cell viability assay (NCI-H929 cells), CCK-8. Format: cell-based. To be noted: WST, 5% FBS. As to the method: Cell Viability Assay (NCI-H929 Cells)
NCI-H929 cells were obtained from American Type Culture Collection (ATCC). Cells were maintained in the recommended culture medium (RPMI 1640) with 10% FBS and 0.05 mM BME at 37° C. and an atmosphere of 5% CO2.
The effect of Compounds on cell viability was determined using Cell Counting Kit-8 (CCK-8) assay according to the manufacturer's instructions. 95 μL of NCI-H929 cell suspension (20000 cells/well) in culture medium were seeded into 96-well plates and cultured 4 hrs. Each tested compound was serially diluted in DMSO, then 5 μL of the compound or DMSO was diluted in 95 μL medium once more. At last, 5 μL of the compound dilution was added to the corresponding well of the cell plate. After the addition of the tested compound, the cells were incubated at 37° C. in an atmosphere of 5% CO2 for 24 hrs. At the end, 10 μL of CCK-8 solution was added to each well of the plate and incubated for 1-4 hours. The plates were read at 450 nm on the microplate reader (BioTek Synergy 1MF). The readings were normalized to the vehicle cells, and the IC50 was calculated by nonlinear regression analysis using GraphPad Prism 6 software.

T1 sequence (Q07820 171-323): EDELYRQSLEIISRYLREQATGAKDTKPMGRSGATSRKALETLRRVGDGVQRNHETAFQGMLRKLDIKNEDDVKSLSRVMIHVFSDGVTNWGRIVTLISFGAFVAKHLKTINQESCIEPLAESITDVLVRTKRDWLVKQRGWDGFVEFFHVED

`Cc1c2c(nn1C)CN(CCO)Cc1cc(n(C)n1)CSc1cc(c3ccccc3c1)OCCCc1c(C(=O)O)n(C)c3c-2c(Cl)ccc13` [compound 50, (Z)-1^6-chloro-4-(2-hydroxyethyl)-1^1,2^1,2^5,6^1-tetramethyl-1^1H,2^1H,6^1H-10-oxa-8-thia-4-aza-1(7,3)-indola-2(4,3), 6(3,5)-dipyrazola-9(3,1)-naphthalenacyclotridecaphane-1^2-carboxylic acid]: the IC50 in test [1] was 20 nM; in the test on OPM-2 cells (Homo sapiens, OPM-2, 24 h), 388 nM; in the test with NCI-H929 cells (Homo sapiens, NCI-H929, 24 h), 66 nM.
In the same order, the values of `Cn1nc2cc1CSc1cc(c3ccc(F)cc3c1)OCCCc1c(C(=O)O)n(C)c3c(c(Cl)ccc13)-c1c(nn3c1COCC3)CN(S(C)(=O)=O)C2` [compound 42, (Z)-1^6-chloro-9^6-fluoro-1^1,6^1-dimethyl-4-(methylsulfonyl)-2^6,2^7-dihydro-1^1H,2^4H,6^1H-10-oxa-8-thia-4-aza-2(3,2)-pyrazolo[5,1-c][1,4]oxazina-1(7,3)-indola-6(3,5)-pyrazola-9(3,1)-naphthalenacyclotridecaphane-1^2-carboxylic acid] are 17 nM, 357 nM and 261 nM.
As to `Cn1nc2cc1CSc1cc(c3ccccc3c1)OCCCc1c(C(=O)O)n(C)c3c(c(Cl)ccc13)-c1c(nn3c1OCC3)CSC2` [compound 6, (Z)-1^6-chloro-1^1,6^1-dimethyl-2^2,2^3-dihydro-1^1H,6^1H-10-oxa-4,8-dithia-2(7,6)-pyrazolo[5,1-b]oxazola-1(7,3)-indola-6(3,5)-pyrazola-9(3,1)-naphthalenacyclotridecaphane-1^2-carboxylic acid], the IC50 in test [1] amounted to 15 nM; with OPM-2 cells (Homo sapiens, OPM-2, 24 h), 1350 nM; with NCI-H929 cells (Homo sapiens, NCI-H929, 24 h), 234 nM.
Regarding `Cn1nc2cc1CSc1cc(c3ccccc3c1)OCCCc1c(C(=O)O)n(C)c3c(c(Cl)ccc13)-c1c(nn3c1CCC3)CSC2` [compound 1, (Z)-1^6-chloro-1^1,6^1-dimethyl-2^5,2^6-dihydro-1^1H,2^4H,6^1H-10-oxa-4,8-dithia-1(7,3)-indola-2(3,2)-pyrrolo[1,2-b]pyrazola-6(3,5)-pyrazola-9(3,1)-naphthalenacyclotridecaphane-1^2-carboxylic acid], the figures for the IC50 (in test [1]; in the test with OPM-2 cells (24 h); with NCI-H929 cells (24 h)) were 15 nM, 437 nM and 123 nM, respectively.
In the case of `Cn1nc2cc1CSc1cc(c3ccc(F)cc3c1)OCCCc1c(C(=O)O)n(C)c3c(c(Cl)ccc13)-c1c(nn3c1COCC3)CN(S(=O)(=O)C1CC1)C2` [compound 43, (Z)-1^6-chloro-4-(cyclopropylsulfonyl)-9^6-fluoro-1^1,6^1-dimethyl-2^6,2^7-dihydro-1^1H,2^4H,6^1H-10-oxa-8-thia-4-aza-2(3,2)-pyrazolo[5,1-c][1,4]oxazina-1(7,3)-indola-6(3,5)-pyrazola-9(3,1)-naphthalenacyclotridecaphane-1^2-carboxylic acid], the IC50 in test [1] turned out to be 12 nM; with OPM-2 cells (Homo sapiens, OPM-2, 24 h), 451 nM; in the test on NCI-H929 cells (Homo sapiens, NCI-H929, 24 h), 190 nM.
In the same order, the values of `Cn1nc2cc1CSc1cc(c3ccccc3c1)OCCCc1c(C(=O)O)n(C)c3c(c(Cl)ccc13)-c1c(nn3c1COCC3)CSC2` [compound 12, (Z)-1^6-chloro-1^1,6^1-dimethyl-2^6,2^7-dihydro-1^1H,2^4H,6^1H-10-oxa-4,8-dithia-2(3,2)-pyrazolo[5,1-c][1,4]oxazina-1(7,3)-indola-6(3,5)-pyrazola-9(3,1)-naphthalenacyclotridecaphane-1^2-carboxylic acid] are 10.9 nM, 532 nM and 81 nM.
The matching figures for `CC(=O)N1Cc2cc(n(C)n2)CSc2cc(c3ccccc3c2)OCCCc2c(C(=O)O)n(C)c3c(c(Cl)ccc23)-c2c(nn(C)c2C)C1` [compound 35, (Z)-4-acetyl-1^6-chloro-1^1,2^1,2^5,6^1-tetramethyl-1^1H,2^1H,6^1H-10-oxa-8-thia-4-aza-1(7,3)-indola-2(4,3),6(3,5)-dipyrazola-9(3,1)-naphthalenacyclotridecaphane-1^2-carboxylic acid]: 16 nM, 763 nM and 215 nM.
The matching figures for `Cn1nc2cc1CSc1cc(cc(C(F)(F)F)c1)OCCCc1c(C(=O)O)n(C)c3c(c(Cl)ccc13)-c1c(nn3c1COCC3)CSC2` [Cpd. No. 33, (Z)-1^6-chloro-1^1,6^1-dimethyl-9^5-(trifluoromethyl)-2^6,2^7-dihydro-11H,2^4H,6^1H-10-oxa-4,8-dithia-2(3,2)-pyrazolo[5,1-c][1,4]oxazina-1(7,3)-indola-6(3,5)-pyrazola-9(1,3)-benzenacyclotridecaphane-1^2-carboxylic acid]: 12 nM, 965 nM and 361 nM.
Regarding `Cc1cc2ccc1CSCc1nn3c(c1-c1c(Cl)ccc4c(c(C(=O)O)n(C)c14)CCCOc1cc(cc4cc(F)ccc14)SC2)CCC3` [compound 29, 1^6-chloro-9^6-fluoro-1^1,6^2-dimethyl-2^5,2^6-dihydro-1^1H,2^4H-10-oxa-4,8-dithia-1(7,3)-indola-2(3,2)-pyrrolo[1,2-b]pyrazola-9(3,1)-naphthalena-6(1,4)-benzenacyclotridecaphane-1^2-carboxylic acid], the IC50 in test [1] was found to be 14.9 nM; in the test on OPM-2 cells (Homo sapiens, OPM-2, 24 h), 348 nM; in the test on NCI-H929 cells (Homo sapiens, NCI-H929, 24 h), 158 nM.
In the same order, the values of `Cn1nc2cc1CSc1cc(c3ccccc3c1)OCCCc1c(C(=O)O)n(C)c3c(c(Cl)ccc13)-c1c(nn3c1CCC3)CS(=O)(=O)C2` [compound 9, (Z)-1^6-chloro-1^1,6^1-dimethyl-2^5,2^6-dihydro-1‘H,2^4H,6^1H-10-oxa-4,8-dithia-1(7,3)-indola-2(3,2)-pyrrolo[1,2-b]pyrazola-6(3,5)-pyrazola-9(3,1)-naphthalenacyclotridecaphane-1^2-carboxylic acid 4,4-dioxide] are 13 nM, 1170 nM and 411 nM.
In the case of `Cn1c(C(=O)O)c2c3ccc(Cl)c(c31)-c1c(nn3c1CCC3)CSCC1=NC=C(CSc3cc(c4ccccc4c3)OCCC2)S1` [compound 4, 1^6-chloro-1^1methyl-2^5,2^6-dihydro-1^1H,2^4H-10-oxa-4,8-dithia-6(2,5)-thiazola-1(7,3)-indola-2(3,2)-pyrrolo[1,2-b]pyrazola-9(3,1)-naphthalenacyclotridecaphane-1^2-carboxylic acid], the IC50 stood at 19.1 nM in test [1] and 5300 nM with OPM-2 cells (Homo sapiens, OPM-2, 24 h).
For the molecule `Cn1nc2cc1CSc1cc(c3ccccc3c1)OCCCc1c(C(=O)O)n(C)c3c(c(Cl)ccc13)-c1c(nn3c1CCC3)CSC2` (atropisomer, axis not shown) [Cpd. No. 52, (R)-(Z)-1^6-chloro-1^1,6^1-dimethyl-2^5,2^6-dihydro-1^1H,2^4H,6^1H-10-oxa-4,8-dithia-1(7,3)-indola-2(3,2)-pyrrolo[1,2-b]pyrazola-6(3,5)-pyrazola-9(3,1)-naphthalenacyclotridecaphane-1^2-carboxylic acid], the results for the IC50 in the test on OPM-2 cells (24 h) and in the test on NCI-H929 cells (24 h) were 353 nM and 63 nM, respectively.
The matching figures for `Cn1nc2cc1CSc1cc(c3ccccc3c1)OCCCc1c(C(=O)O)n(C)c3c(c(Cl)ccc13)-c1c(nn3c1CCC3)CSC2` (atropisomer, axis not shown) [Cpd. No. 53, (S)-(Z)-1^6-chloro-1^1,6^1-dimethyl-2^5,2^6-dihydro-1^1H,2^4H,6^1H-10-oxa-4,8-dithia-1(7,3)-indola-2(3,2)-pyrrolo[1,2-b]pyrazola-6(3,5)-pyrazola-9(3,1)-naphthalenacyclotridecaphane-1^2-carboxylic acid]: 5720 nM and 4400 nM.
